Experimental data: patent publication US8247211B2, “Glycopeptide antibiotics” (American Cyanamid Company, priority 2001, dated 2012)
In brackets after ≈: the same amount, converted by molar mass.

How the values were obtained:
Test in all cases: In vitro antibacterial evaluation: minimum inhibitory concentration (MIC), broth dilution method
Type in all cases: cell-based
[1] = tested on: Streptococcus sp.
How it was run: (§1)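 Broth dilution per NCCLS M7-A2 in Muller-Hinton II […], inoculum 5×10^5 CFU/mL, antibiotic tested over 64-0.06 μg/mL. MIC is taken as the lowest concentration that inhibits growth. Panel includes recent clinical isolates resistant to methicillin, penicillin and/or vancomycin.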

[2] = tested on: Escherichia coli
How it was run: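 MIC read as lowest drug level preventing visible growth. Organisms at 5×10^5 CFU/mL were exposed to a 64-0.06 μg/mL dilution series in Muller-Hinton II […] following NCCLS broth dilution standard M7-A2.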

[3] = tested on: Staphylococcus sp.; details: broth dilution, 18 hours at 35° C.
How it was run: as §1

[4] = tested on: Enterococcus sp.
How it was run: as §1

[5] = broth dilution, inoculum 5×10^5 CFU/mL, 18 hours at 35° C.

MIC Streptococcus agalactiae (GC 4564) [1, 5]: <0.12 µg/mL
MIC Streptococcus pneumoniae (ATCC 6301) [1, 5]: <0.12 µg/mL
MIC Streptococcus pneumoniae (GC 1894) [1, 5]: <0.12 µg/mL
MIC Streptococcus pneumoniae (GC 4565) [1, 5]: <0.12 µg/mL
MIC Streptococcus pyogenes (GC 4563) [1, 5]: 0.5 µg/mL (≈ 0.339 µM)
MIC Streptococcus pneumoniae (ATCC 6301) ([1]; strain ATCC 6301): <0.12 µg/mL
MIC Streptococcus pneumoniae (GC 1894) ([1]; strain GC 1894): <0.12 µg/mL
MIC Streptococcus pyogenes (GC 4563) ([1]; strain GC 4563): 0.5 µg/mL (≈ 0.339 µM)
MIC Streptococcus agalactiae (GC 4564) ([1]; strain GC 4564): <0.12 µg/mL
MIC Streptococcus pneumoniae (GC 4565) ([1]; strain GC 4565): <0.12 µg/mL
MIC Escherichia coli (ATCC 25922) ([2]; strain ATCC 25922): 64 µg/mL (≈ 43.4 µM)
MIC Escherichia coli (GC 4559) ([2]; strain GC 4559): 16 µg/mL (≈ 10.9 µM)
MIC Escherichi coli (GC 4560) ([2]; strain GC 4560): 0.5 µg/mL (≈ 0.339 µM)
MIC Coagulase Negative Staphylococcus (GC 4547) ([3]; 5×10^5 CFU/mL): 2 µg/mL (≈ 1.36 µM)
MIC Coagulase Negative Staphylococcus (GC 4548) ([3]; 5×10^5 CFU/mL): 0.5 µg/mL (≈ 0.339 µM)
MIC Coagulase Negative Staphylococcus (GC 4549) ([3]; 5×10^5 CFU/mL): 0.5 µg/mL (≈ 0.339 µM)
MIC Coagulase Negative Staphylococcus (GC 4551) ([3]; 5×10^5 CFU/mL): 1 µg/mL (≈ 0.678 µM)
MIC Staphylococcus aureus (ATCC 29213) ([3]; 5×10^5 CFU/mL): 1 µg/mL (≈ 0.678 µM)
MIC Staphylococcus aureus (GC 1131) ([3]; 5×10^5 CFU/mL): 1 µg/mL (≈ 0.678 µM)
MIC Staphylococcus aureus (GC 3051) ([3]; 5×10^5 CFU/mL): 1 µg/mL (≈ 0.678 µM)
MIC Staphylococcus aureus (GC 3053) ([3]; 5×10^5 CFU/mL): 1 µg/mL (≈ 0.678 µM)
MIC Staphylococcus aureus (GC 4541) ([3]; 5×10^5 CFU/mL): 1 µg/mL (≈ 0.678 µM)
MIC Staphylococcus aureus (GC 4542) ([3]; 5×10^5 CFU/mL): 1 µg/mL (≈ 0.678 µM)
MIC Staphylococcus aureus (GC 4544) ([3]; 5×10^5 CFU/mL): 2 µg/mL (≈ 1.36 µM)
MIC Staphylococcus aureus (GC 4545) ([3]; 5×10^5 CFU/mL): 1 µg/mL (≈ 0.678 µM)
MIC Staphylococcus aureus-SMITH (GC 4543) ([3]; 5×10^5 CFU/mL): 1 µg/mL (≈ 0.678 µM)
MIC Staphylococcus aureus (ATCC 29213) ([3]; strain ATCC 29213): 1 µg/mL (≈ 0.678 µM)
MIC Staphylococcus aureus (GC 1131) ([3]; strain GC 1131): 1 µg/mL (≈ 0.678 µM)
MIC Staphylococcus aureus (GC 3051) ([3]; strain GC 3051): 1 µg/mL (≈ 0.678 µM)
MIC Staphylococcus aureus (GC 3053) ([3]; strain GC 3053): 1 µg/mL (≈ 0.678 µM)
MIC Staphylococcus aureus (GC 4541) ([3]; strain GC 4541): 1 µg/mL (≈ 0.678 µM)
MIC Staphylococcus aureus (GC 4542) ([3]; strain GC 4542): 1 µg/mL (≈ 0.678 µM)
MIC Staphylococcus aureus (GC 4544) ([3]; strain GC 4544): 2 µg/mL (≈ 1.36 µM)
MIC Staphylococcus aureus (GC 4545) ([3]; strain GC 4545): 1 µg/mL (≈ 0.678 µM)
MIC Enterococcus avium (GC 4558) [4, 5]: 2 µg/mL (≈ 1.36 µM)
MIC Enterococcus faecalis (ATCC 29212) [4, 5]: 2 µg/mL (≈ 1.36 µM)
MIC Enterococcus faecalis (GC 2242) [4, 5]: 2 µg/mL (≈ 1.36 µM)
MIC Enterococcus faecalis (GC 2691) [4, 5]: 2 µg/mL (≈ 1.36 µM)
MIC Enterococcus faecalis (GC 3059) [4, 5]: 2 µg/mL (≈ 1.36 µM)
MIC Enterococcus faecalis (GC 4552) [4, 5]: 2 µg/mL (≈ 1.36 µM)
MIC Enterococcus faecalis (GC 4553) [4, 5]: 2 µg/mL (≈ 1.36 µM)
MIC Enterococcus faecalis (GC 4554) [4, 5]: 2 µg/mL (≈ 1.36 µM)
MIC Enterococcus faecalis (GC 6189) [4, 5]: 2 µg/mL (≈ 1.36 µM)
MIC Enterococcus faecium (GC 2243) [4, 5]: 2 µg/mL (≈ 1.36 µM)
MIC Enterococcus faecium (GC 4556) [4, 5]: 2 µg/mL (≈ 1.36 µM)
MIC Enterococcus faecium (GC 4557) [4, 5]: 1 µg/mL (≈ 0.678 µM)
MIC Enterococcus faecalis (ATCC 29212) ([4]; strain ATCC 29212): 2 µg/mL (≈ 1.36 µM)
MIC Enterococcus faecalis (GC 2242) ([4]; strain GC 2242): 2 µg/mL (≈ 1.36 µM)
MIC Enterococcus faecium (GC 2243) ([4]; strain GC 2243): 2 µg/mL (≈ 1.36 µM)
MIC Enterococcus faecalis (GC 2691) ([4]; strain GC 2691): 2 µg/mL (≈ 1.36 µM)
MIC Enterococcus faecalis (GC 3059) ([4]; strain GC 3059): 2 µg/mL (≈ 1.36 µM)
MIC Enterococcus faecalis (GC 4552) ([4]; strain GC 4552): 2 µg/mL (≈ 1.36 µM)
MIC Enterococcus faecalis (GC 4553) ([4]; strain GC 4553): 2 µg/mL (≈ 1.36 µM)
MIC Enterococcus faecalis (GC 4554) ([4]; strain GC 4554): 2 µg/mL (≈ 1.36 µM)
MIC Enterococcus faecium (GC 4556) ([4]; strain GC 4556): 2 µg/mL (≈ 1.36 µM)
MIC Enterococcus faecium (GC 4557) ([4]; strain GC 4557): 1 µg/mL (≈ 0.678 µM)
MIC Enterococcus avium (GC 4558) ([4]; strain GC 4558): 2 µg/mL (≈ 1.36 µM)
MIC Enterococcus faecalis (GC 6189) ([4]; strain GC 6189): 2 µg/mL (≈ 1.36 µM)
SMILES: CSc1ccc(C2OCC3OC(OC4C(CO)OC(Oc5ccc(CC6NC(=O)C(C(C)c7ccccc7)NC(=O)CNC(=O)C(CO)NC(=O)C(C(O)C7CNC(=N)N7C7OC(CO)C(O)C(O)C7O)NC(=O)C(C(O)C7CNC(=N)N7)NC6=O)cc5)C(O)C4O)C(O)C(O)C3O2)cc1[N+](=O)[O-] (stereo not drawn) [Example 168, Cyclo[glycyl-β-methylphenylalanyl-O-[4-O-[4,6-O-[4-(methylthio)-3-nitrobenzylidene]hexopyranosyl]hexopyranosyl]tyrosyl-3-(2-iminoimidazolidin-4-yl)seryl-3-(3-hexopyranosyl-2-iminoimidazolidin-4-yl)serylseryl]]
MIC Staphylococcus haemolyticus (GC 4546) ([3]; 5×10^5 CFU/mL): 0.5 µg/mL (≈ 0.339 µM)
